For assay [1], the system named is KARPAS-299. The experiment in a line: cells. The following applies: Homo sapiens, KARPAS-299, 72 h.
Description: Antiproliferative activity against human KARPAS-299 cells assessed as reduction in cell growth measured after 72 hrs by MTT assay
The subject of assay [2] is NCI-H2228. The experiment in a line: cells. The following applies: Homo sapiens, NCI-H2228, 72 h.
Description: Antiproliferative activity against human NCI-H2228 cells assessed as reduction in cell growth measured after 72 hrs by MTT assay
Assay [3] relates to A549. The experiment in a line: cells. The following applies: Homo sapiens, A549, 72 h.
Description: Antiproliferative activity against human A549 cells assessed as reduction in cell growth measured after 72 hrs by MTT assay
The target of assay [4] is Epidermal growth factor receptor (Homo sapiens, UniProt P00533). Kind of assay: Inhibition of N-terminal GST-tagged human EGFR cytoplasmic domain (669 to 1210 residues) expressed in baculovirus infected Sf21 insect cells using Srctide as substrate measured after 1 hr by mobility shift assay.
Epidermal growth factor receptor, sequence (P00533 whole entry, the tested form may be a part): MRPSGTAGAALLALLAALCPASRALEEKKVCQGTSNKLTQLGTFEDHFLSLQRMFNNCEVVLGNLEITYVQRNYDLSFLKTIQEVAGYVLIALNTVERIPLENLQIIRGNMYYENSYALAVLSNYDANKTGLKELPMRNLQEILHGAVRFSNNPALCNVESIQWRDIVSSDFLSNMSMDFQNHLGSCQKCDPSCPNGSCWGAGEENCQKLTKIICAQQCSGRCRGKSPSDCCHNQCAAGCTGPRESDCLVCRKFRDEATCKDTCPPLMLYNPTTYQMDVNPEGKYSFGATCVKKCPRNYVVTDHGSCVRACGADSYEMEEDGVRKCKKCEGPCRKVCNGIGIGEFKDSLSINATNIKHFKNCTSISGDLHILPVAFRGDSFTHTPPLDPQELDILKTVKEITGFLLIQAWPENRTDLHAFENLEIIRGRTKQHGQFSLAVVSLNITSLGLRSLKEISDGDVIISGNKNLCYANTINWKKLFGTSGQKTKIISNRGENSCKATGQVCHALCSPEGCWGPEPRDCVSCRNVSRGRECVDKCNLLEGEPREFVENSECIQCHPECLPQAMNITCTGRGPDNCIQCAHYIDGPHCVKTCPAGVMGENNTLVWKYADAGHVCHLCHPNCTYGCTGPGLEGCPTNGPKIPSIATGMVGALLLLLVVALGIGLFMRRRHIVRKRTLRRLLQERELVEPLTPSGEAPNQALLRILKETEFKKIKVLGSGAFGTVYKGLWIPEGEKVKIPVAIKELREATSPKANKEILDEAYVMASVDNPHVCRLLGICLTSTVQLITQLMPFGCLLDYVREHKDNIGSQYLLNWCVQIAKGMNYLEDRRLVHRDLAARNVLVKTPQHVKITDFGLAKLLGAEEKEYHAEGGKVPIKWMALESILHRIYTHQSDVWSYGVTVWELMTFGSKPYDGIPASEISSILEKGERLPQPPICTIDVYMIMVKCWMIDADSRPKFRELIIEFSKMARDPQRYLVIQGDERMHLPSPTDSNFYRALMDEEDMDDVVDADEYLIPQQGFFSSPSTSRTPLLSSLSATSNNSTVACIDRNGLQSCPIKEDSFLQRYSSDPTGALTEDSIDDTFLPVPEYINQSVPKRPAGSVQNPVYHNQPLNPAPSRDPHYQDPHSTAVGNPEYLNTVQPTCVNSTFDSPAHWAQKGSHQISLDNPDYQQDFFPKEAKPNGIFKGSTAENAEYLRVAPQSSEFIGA
In assay [5] the target is ALK tyrosine kinase receptor (Homo sapiens, UniProt Q9UM73, G1202R). Kind of assay: Inhibition of human N-terminal GST-fused ALK G1202R mutant cytoplasmic domain (1058 to 1620 residues) expressed in baculovirus infected Sf21 insect cells using Srctide as substrate measured after 1 hr by mobility shift assay.
ALK tyrosine kinase receptor (Homo sapiens, UniProt Q9UM73, G1202R), sequence (Q9UM73 19-1620 G1202R limits assumed): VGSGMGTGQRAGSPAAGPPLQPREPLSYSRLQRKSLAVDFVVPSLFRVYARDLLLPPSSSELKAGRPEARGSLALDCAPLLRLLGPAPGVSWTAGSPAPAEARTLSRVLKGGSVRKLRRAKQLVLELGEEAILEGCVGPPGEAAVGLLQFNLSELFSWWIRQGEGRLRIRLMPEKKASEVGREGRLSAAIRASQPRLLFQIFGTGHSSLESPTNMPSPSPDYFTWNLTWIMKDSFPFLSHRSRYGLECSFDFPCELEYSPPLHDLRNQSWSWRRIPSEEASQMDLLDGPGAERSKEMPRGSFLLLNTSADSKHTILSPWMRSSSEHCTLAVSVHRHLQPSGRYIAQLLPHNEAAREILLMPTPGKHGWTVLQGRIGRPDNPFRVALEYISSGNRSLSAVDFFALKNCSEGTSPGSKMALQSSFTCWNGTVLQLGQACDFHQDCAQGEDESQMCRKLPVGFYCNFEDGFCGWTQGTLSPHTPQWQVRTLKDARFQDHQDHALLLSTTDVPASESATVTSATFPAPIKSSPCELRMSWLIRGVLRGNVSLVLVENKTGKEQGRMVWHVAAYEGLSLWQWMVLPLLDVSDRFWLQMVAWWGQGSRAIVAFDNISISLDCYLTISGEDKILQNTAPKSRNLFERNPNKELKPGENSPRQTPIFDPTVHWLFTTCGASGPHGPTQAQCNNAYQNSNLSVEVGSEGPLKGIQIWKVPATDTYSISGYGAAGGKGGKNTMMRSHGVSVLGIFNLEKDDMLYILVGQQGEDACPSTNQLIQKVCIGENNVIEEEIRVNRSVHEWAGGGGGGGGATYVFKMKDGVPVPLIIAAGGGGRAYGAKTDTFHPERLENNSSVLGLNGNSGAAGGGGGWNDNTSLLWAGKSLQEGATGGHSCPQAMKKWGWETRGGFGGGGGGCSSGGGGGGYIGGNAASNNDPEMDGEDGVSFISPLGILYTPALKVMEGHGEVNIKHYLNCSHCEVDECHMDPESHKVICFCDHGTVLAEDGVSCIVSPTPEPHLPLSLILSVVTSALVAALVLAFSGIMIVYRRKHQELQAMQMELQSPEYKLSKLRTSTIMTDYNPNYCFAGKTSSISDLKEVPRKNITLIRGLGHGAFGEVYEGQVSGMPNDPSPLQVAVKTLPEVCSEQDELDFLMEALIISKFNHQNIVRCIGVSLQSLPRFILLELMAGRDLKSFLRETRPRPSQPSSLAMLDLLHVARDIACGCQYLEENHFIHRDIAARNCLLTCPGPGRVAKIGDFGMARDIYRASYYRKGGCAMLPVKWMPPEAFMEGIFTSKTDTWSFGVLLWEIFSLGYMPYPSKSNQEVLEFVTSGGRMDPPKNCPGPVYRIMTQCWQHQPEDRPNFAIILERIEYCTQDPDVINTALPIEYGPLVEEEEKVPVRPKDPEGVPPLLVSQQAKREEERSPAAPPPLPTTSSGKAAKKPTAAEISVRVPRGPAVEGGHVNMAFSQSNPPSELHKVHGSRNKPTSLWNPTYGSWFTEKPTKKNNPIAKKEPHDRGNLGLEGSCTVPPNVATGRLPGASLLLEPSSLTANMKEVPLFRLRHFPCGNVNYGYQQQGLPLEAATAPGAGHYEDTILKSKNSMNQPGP
The target of assay [6] is ALK tyrosine kinase receptor (Homo sapiens, UniProt Q9UM73, L1196M). The experiment in a line: Inhibition of human N-terminal GST-fused ALK L1196M mutant cytoplasmic domain (1058 to 1620 residues) expressed in baculovirus infected Sf21 insect cells using Srctide as substrate measured after 1 hr by mobility shift assay.
Assay [7] deals with T1, Receptor-type tyrosine-protein kinase FLT3 (Homo sapiens, UniProt P36888).
T1 sequence (P36888 whole entry): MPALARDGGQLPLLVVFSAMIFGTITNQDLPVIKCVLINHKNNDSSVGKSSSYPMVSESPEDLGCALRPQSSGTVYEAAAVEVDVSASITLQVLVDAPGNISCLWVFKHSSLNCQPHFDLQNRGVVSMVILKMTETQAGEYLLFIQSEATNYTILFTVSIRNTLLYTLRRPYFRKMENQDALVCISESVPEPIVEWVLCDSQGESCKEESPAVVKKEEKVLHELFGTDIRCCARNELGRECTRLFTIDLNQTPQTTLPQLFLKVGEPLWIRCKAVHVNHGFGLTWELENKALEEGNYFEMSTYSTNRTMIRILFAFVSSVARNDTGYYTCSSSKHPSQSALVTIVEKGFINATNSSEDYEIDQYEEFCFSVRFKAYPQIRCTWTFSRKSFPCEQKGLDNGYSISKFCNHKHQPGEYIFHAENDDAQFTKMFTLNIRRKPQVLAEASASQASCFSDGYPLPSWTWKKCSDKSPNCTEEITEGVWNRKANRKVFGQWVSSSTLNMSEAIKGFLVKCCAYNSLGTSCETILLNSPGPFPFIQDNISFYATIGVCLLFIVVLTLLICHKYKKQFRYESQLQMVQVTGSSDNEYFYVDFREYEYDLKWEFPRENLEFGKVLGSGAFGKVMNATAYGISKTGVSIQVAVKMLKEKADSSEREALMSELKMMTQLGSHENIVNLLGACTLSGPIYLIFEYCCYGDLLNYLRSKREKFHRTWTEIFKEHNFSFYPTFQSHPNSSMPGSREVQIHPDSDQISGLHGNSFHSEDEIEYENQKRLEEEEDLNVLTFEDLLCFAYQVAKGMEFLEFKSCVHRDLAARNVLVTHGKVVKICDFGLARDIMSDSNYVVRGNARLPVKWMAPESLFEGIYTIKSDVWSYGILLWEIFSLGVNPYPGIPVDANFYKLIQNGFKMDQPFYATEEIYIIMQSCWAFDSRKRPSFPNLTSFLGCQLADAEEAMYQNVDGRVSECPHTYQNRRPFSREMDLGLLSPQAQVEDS
Kind of assay: Inhibition of N-terminal GST-tagged human FLT3 cytoplasmic domain (564 to 993 residues) expressed in baculovirus infected Sf21 insect cells using Srctide as substrate measured after 1 hr by mobility shift assay.

Assay [8] concerns the target ALK tyrosine kinase receptor (Homo sapiens, UniProt Q9UM73). The experiment in a line: Inhibition of human N-terminal GST-fused ALK cytoplasmic domain (1058 to 1620 residues) expressed in baculovirus infected Sf21 insect cells using Srctide as substrate measured after 1 hr by mobility shift assay.

ALK tyrosine kinase receptor (Homo sapiens, UniProt Q9UM73), sequence (Q9UM73 whole entry, the tested form may be a part): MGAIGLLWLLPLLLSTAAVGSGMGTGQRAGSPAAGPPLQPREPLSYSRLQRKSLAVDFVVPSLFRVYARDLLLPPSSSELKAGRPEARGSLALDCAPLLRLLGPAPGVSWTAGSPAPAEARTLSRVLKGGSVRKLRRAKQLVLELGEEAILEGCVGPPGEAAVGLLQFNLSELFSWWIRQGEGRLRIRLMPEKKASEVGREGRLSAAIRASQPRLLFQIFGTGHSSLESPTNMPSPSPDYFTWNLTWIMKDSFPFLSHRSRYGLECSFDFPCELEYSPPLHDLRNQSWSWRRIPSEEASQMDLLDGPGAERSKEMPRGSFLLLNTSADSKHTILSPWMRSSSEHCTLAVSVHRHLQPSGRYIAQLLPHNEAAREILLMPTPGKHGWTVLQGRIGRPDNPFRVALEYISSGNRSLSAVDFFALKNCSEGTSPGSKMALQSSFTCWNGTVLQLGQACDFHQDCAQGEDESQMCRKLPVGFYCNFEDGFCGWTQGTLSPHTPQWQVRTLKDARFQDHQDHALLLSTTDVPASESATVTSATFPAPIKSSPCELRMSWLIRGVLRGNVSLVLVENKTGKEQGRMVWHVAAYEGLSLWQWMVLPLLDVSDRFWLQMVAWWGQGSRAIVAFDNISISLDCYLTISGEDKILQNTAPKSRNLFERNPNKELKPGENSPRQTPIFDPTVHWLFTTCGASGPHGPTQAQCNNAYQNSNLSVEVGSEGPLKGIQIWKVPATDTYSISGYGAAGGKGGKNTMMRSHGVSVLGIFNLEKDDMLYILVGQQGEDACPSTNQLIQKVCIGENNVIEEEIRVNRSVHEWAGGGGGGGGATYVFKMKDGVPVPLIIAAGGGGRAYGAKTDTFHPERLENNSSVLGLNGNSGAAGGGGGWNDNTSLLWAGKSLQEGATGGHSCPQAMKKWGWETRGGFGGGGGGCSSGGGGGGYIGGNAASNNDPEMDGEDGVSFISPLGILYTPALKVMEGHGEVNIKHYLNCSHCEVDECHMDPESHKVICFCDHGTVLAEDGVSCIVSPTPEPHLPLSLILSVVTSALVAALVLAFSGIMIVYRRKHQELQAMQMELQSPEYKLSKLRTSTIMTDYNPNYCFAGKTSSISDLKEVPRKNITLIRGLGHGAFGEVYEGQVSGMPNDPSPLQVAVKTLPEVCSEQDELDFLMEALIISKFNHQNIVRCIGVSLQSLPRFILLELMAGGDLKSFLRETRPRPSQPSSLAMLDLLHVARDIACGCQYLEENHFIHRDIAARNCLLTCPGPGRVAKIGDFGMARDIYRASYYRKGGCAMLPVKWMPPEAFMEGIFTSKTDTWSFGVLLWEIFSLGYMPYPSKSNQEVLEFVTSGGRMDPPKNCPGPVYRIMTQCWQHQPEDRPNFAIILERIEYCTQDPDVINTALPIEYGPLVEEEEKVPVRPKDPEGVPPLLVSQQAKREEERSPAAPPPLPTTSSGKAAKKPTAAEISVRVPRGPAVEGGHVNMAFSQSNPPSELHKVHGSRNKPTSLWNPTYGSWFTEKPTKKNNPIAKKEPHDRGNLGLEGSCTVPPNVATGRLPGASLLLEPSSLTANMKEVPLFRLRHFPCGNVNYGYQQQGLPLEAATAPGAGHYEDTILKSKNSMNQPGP

On to `CCN(CC)Cc1nc2ccc(Nc3ncc(Cl)c(Nc4ccccc4NS(C)(=O)=O)n3)cc2[nH]1`, for which the values for the IC50 in assay [1], in assay [2] and in assay [3] were 79 nM, 1230 nM and greater than 10 µM, respectively.

`CC(=O)Nc1ccccc1Nc1nc(Nc2ccc3nc(CN4CCN(CCO)CC4)[nH]c3c2)ncc1Cl`: the 50% inhibitory concentration (IC50) is 1350 nM in assay [1], 2360 nM in assay [2] and greater than 10 µM in assay [3].

For the compound `CS(=O)(=O)Nc1ccccc1Nc1nc(Nc2ccc3nc(CN4CCCCC4)[nH]c3c2)ncc1Cl`, the IC50 in assay [4] was greater than 1000 nM; in assay [5] it was 7.1 nM; in assay [1], 68 nM; in assay [6] it was 8.4 nM; in assay [2] it was 429 nM; in assay [3] it was 6.01 µM. For the same compound, the IC50 in assay [7] was 186 nM; in assay [8] it was 5.3 nM.

On to `CN(C)C(=O)c1ccccc1Nc1nc(Nc2ccc3nc(CN4CCCCC4)[nH]c3c2)ncc1Cl`, for which the concentration for half-maximal inhibition (IC50) in assay [1] was determined as 57 nM; in assay [2] it was 337 nM; in assay [3] it was 1.87 µM.

Take `CS(=O)(=O)Nc1ccccc1Nc1nc(Nc2ccc3nc(CN4CCOCC4)[nH]c3c2)ncc1Cl`: the IC50 in assay [1] was 798 nM; in assay [2] it was 1070 nM; in assay [3] it was greater than 10 µM.

For the compound `CS(=O)(=O)Nc1ccccc1Nc1nc(Nc2ccc3nc(CN4CCC(O)CC4)[nH]c3c2)ncc1Cl`, the 50% inhibitory concentration (IC50) in assay [1] is 1290 nM; in assay [2] it was 1300 nM; in assay [3] it was greater than 10 µM.

Regarding `CN(C)C(=O)c1ccccc1Nc1nc(Nc2ccc3nc(CN4CCCC4)[nH]c3c2)ncc1Cl`, the 50% inhibitory concentration (IC50) in assay [4] is greater than 1000 nM; in assay [5] it was 13.3 nM; in assay [1], 54 nM; in assay [6] it was 5.3 nM; in assay [2], 291 nM; in assay [3], greater than 10 µM. In addition, the 50% inhibitory concentration (IC50) was 103 nM in assay [7] and 3.4 nM in assay [8].

`CC(C)N(Cc1nc2ccc(Nc3ncc(Cl)c(Nc4ccccc4NS(C)(=O)=O)n3)cc2[nH]1)C(C)C`: the IC50 stood at 2010 nM in assay [1], 3790 nM in assay [2] and 5.37 µM in assay [3].

Take `CN(C)C(=O)c1ccccc1Nc1nc(Nc2ccc3nc(CN4CCSCC4)[nH]c3c2)ncc1Cl`: the IC50 in assay [1] was 1290 nM; in assay [2], 2350 nM; in assay [3], 7.36 µM.

Take `CC(=O)Nc1ccccc1Nc1nc(Nc2ccc3nc(CN4CCN(C)CC4)[nH]c3c2)ncc1Cl`: the results for the IC50 in assay [1], in assay [2] and in assay [3] were 107 nM, 230 nM and greater than 10 µM, respectively.

As to `CC(=O)Nc1ccccc1Nc1nc(Nc2ccc3nc(CN(C)C)[nH]c3c2)ncc1Cl`, the IC50 in assay [1] was 79 nM; in assay [2] it was 507 nM; in assay [3], greater than 10 µM.

For the compound `CN1CCN(Cc2nc3ccc(Nc4ncc(Cl)c(Nc5ccccc5C(=O)N(C)C)n4)cc3[nH]2)CC1`, the IC50 is 5.7 nM in assay [5], 3.8 nM in assay [6], greater than 200 nM in assay [7] and 2.7 nM in assay [8].

With `CCN(CC)Cc1nc2ccc(Nc3ncc(Cl)c(Nc4ccccc4C(=O)N(C)C)n3)cc2[nH]1`, the 50% inhibitory concentration (IC50) in assay [1] was determined as 1230 nM; in assay [2], 1450 nM; in assay [3] it was 2.93 µM.

With `CN(C)Cc1nc2ccc(Nc3ncc(Cl)c(Nc4ccccc4NS(C)(=O)=O)n3)cc2[nH]1`, the half-inhibitory concentration (IC50) in assay [4] is greater than 1000 nM; in assay [5] it was 8.2 nM; in assay [1], 56 nM; in assay [6] it was 3.7 nM; in assay [2], 326 nM; in assay [3], 3.01 µM. The figures for the concentration for half-maximal inhibition (IC50) in assay [7] and in assay [8] were greater than 200 nM and 4 nM, respectively.

In the case of `CN(C)C(=O)c1ccccc1Nc1nc(Nc2ccc3nc(CN4CCN(CCO)CC4)[nH]c3c2)ncc1Cl`, the concentration for half-maximal inhibition (IC50) in assay [1] is 249 nM; in assay [2], 1290 nM; in assay [3] it was greater than 10 µM.

Turning to `CN1CCN(Cc2nc3ccc(Nc4ncc(Cl)c(Nc5ccccc5NS(C)(=O)=O)n4)cc3[nH]2)CC1`, the IC50 in assay [5] stood at 7 nM; in assay [6] it was 4.9 nM; in assay [7], 135 nM; in assay [8] it was 3.6 nM.

Turning to `CN(C)Cc1nc2ccc(Nc3ncc(Cl)c(Nc4ccccc4C(=O)N(C)C)n3)cc2[nH]1`, the half-inhibitory concentration (IC50) in assay [4] was greater than 1000 nM; in assay [5] it was 6.9 nM; in assay [1] it was 47 nM; in assay [6] it was 3.8 nM; in assay [2], 127 nM; in assay [3], greater than 10 µM. The IC50 was greater than 200 nM in assay [7] and 3.2 nM in assay [8].

As to `CC(=O)Nc1ccccc1Nc1nc(Nc2ccc3nc(CN4CCC(C)CC4)[nH]c3c2)ncc1Cl`, the figures for the half-maximal inhibitory concentration (IC50) in assay [1], in assay [2] and in assay [3] were 193 nM, 975 nM and 6.03 µM, respectively.

Take `CCN1CCN(Cc2nc3ccc(Nc4ncc(Cl)c(Nc5ccccc5C(=O)N(C)C)n4)cc3[nH]2)CC1`: the results for the concentration for half-maximal inhibition (IC50) in assay [1], in assay [2] and in assay [3] were 203 nM, 583 nM and greater than 10 µM, respectively.

As for `CN(C)C(=O)c1ccccc1Nc1nc(Nc2ccc3nc(CN4CCOCC4)[nH]c3c2)ncc1Cl`, the values for the IC50 in assay [1], in assay [2] and in assay [3] were 833 nM, 1270 nM and greater than 10 µM, respectively.

For `CS(=O)(=O)Nc1ccccc1Nc1nc(Nc2ccc3nc(CN4CCCC4)[nH]c3c2)ncc1Cl`, the IC50 in assay [1] turned out to be 62 nM; in assay [2], 347 nM; in assay [3], 1.86 µM.

In the case of `CC1CCN(Cc2nc3ccc(Nc4ncc(Cl)c(Nc5ccccc5NS(C)(=O)=O)n4)cc3[nH]2)CC1`, the half-maximal inhibitory concentration (IC50) in assay [1] was 136 nM; in assay [2] it was 770 nM; in assay [3], greater than 10 µM.

Take `Cc1cc(Nc2ncc(Cl)c(Nc3ccccc3S(=O)(=O)C(C)C)n2)c(OC(C)C)cc1C1CCNCC1` [CERITINIB]: the 50% inhibitory concentration (IC50) in assay [1] was 31 nM; in assay [2] it was 107 nM; in assay [7], 86.4 nM.

For the compound `CNC(=O)c1ccccc1Nc1nc(Nc2ccc3nc(CN(C)C)[nH]c3c2)ncc1Cl`, the figures for the IC50 in assay [1], in assay [2] and in assay [3] were 62 nM, 338 nM and 4.79 µM, respectively.

Turning to `CS(=O)(=O)Nc1ccccc1Nc1nc(Nc2ccc3nc(CN4CCN(CCO)CC4)[nH]c3c2)ncc1Cl`, the values for the IC50 in assay [1], in assay [2] and in assay [3] were 1030 nM, 1720 nM and greater than 10 µM, respectively.

Turning to `CCN1CCN(Cc2nc3ccc(Nc4ncc(Cl)c(Nc5ccccc5NS(C)(=O)=O)n4)cc3[nH]2)CC1`, the results for the 50% inhibitory concentration (IC50) in assay [1], in assay [2] and in assay [3] were 432 nM, 1030 nM and greater than 10 µM, respectively.

With `CS(=O)(=O)Nc1ccccc1Nc1nc(Nc2ccc3nc(CN4CCSCC4)[nH]c3c2)ncc1Cl`, the IC50 is 1840 nM in assay [1], 3230 nM in assay [2] and greater than 10 µM in assay [3].

`CNC(=O)c1ccccc1Nc1nc(Nc2ccc3nc(CN4CCN(CCO)CC4)[nH]c3c2)ncc1Cl`: the figures for the IC50 in assay [1], in assay [2] and in assay [3] were 391 nM, 1310 nM and greater than 10 µM, respectively.

In the case of `CNC(=O)c1ccccc1Nc1nc(Nc2ccc3nc(CN4CCC(C)CC4)[nH]c3c2)ncc1Cl`, the IC50 in assay [1] is 77 nM; in assay [2] it was 632 nM; in assay [3] it was greater than 10 µM.

Usually IC50 stands for the concentration needed to halve the response being measured.
